Results as given in patent US9012461B2, “FAK inhibitors” (priority 2011, dated 2015).

Experiments:
MDA-231-LNA cells = details: 3 days
[1] = test system: taxane-sensitive (SKOV3ip1 and HeyA8) and taxane-resistant (HeyA8-MDR) ovarian cancer cell lines; details: in vitro; cited from earlier work
[2] = test system: HeyA8, SKOV3ip1, and HeyA8-MDR models; details: compared with vehicle-treated controls; cited from earlier work
[3] = test system: MDA-231-LNA primary tumours; test: Combination study, MDA-231-LNA orthotopic xenograft model; format: in vivo, Balb/c SCID mice; details: Avastin 12.5 mg/kg i.p. twice weekly; compound 16 (citrate salt) p.o. 54 mg/kg BID

Row | Molecule | IC50 (MDA-231-LNA cells) [µM] | other results
1 | CNC(=O)c1ccccc1Nc1nc(Nc2ccc(N3CCOCC3)cc2OC)ncc1Cl [TAE226] | – | phosphorylation of FAK [1]: inhibited the phosphorylation of FAK at both Y397 and Y861 sites; reduction of tumour burden [2]: 46-64%
2 | Avastin | – | median survival time [3]: 24 days

Second part, led by results:

Row | IC50 (MDA-231-LNA cells) [µM] | Molecule | other results
3 | > 5 | NC(=O)Cc1cccnc1CCc1nc(Nc2ccc(C3CCNCC3)cc2)ncc1C(F)(F)F [Compound 32, 2-(2-(2-(2-((4-(Piperidin-4-yl)phenyl)amino)-5-(trifluoromethyl)pyrimidin-4-yl)ethyl)pyridin-3-yl)acetamide] | –
4 | > 10 | NC(=O)Cc1ccccc1CCc1nc(Nc2ccc(C3CCNC3)cc2)ncc1C(F)(F)F (stereo not drawn) [Compound 35, 2-(2-(2-(2-((4-(pyrrolidin-3-yl)phenyl)amino)-5-(trifluoromethyl)pyrimidin-4-yl)ethyl)phenyl)acetamide] | –
5 | > 10 | CCN1CCC(c2ccc(Nc3ncc(C(F)(F)F)c(CCc4ncccc4CC(N)=O)n3)cc2)CC1 [Compound 38, 2-(2-(2-(2-((4-(1-Ethylpiperidin-4-yl)phenyl)amino)-5-(trifluoromethyl)pyrimidin-4-yl)ethyl)pyridin-3-yl)acetamide] | –
